Laboratory results as given in ChEMBL document CHEMBL1201862, “PubChem BioAssay data set” (2004).
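Grown in 96-well plates, cells were treated for 48 hours with each compound at five concentrations. Insufficient inhibition: endpoint recorded as highest concentration tested. At the GI50, growth is halved.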 The source made the active and inactive calls. Cut-off read from the data, not from the text of the source: active = GI50 up to about 1.1 µM and inactive = higher.

How the values were obtained:
Test in all cases: NCI-60 cell line screen, 48 h
UACC-257 = test system: UACC-257
A498 = test system: A498
MCF7 = test system: MCF7
CCRF-CEM = test system: CCRF-CEM
EKVX = test system: EKVX
MDA-MB-435 = test system: MDA-MB-435
T47D = test system: T47D
SK-MEL-5 = test system: SK-MEL-5
RXF 393 = test system: RXF 393
HOP-92 = test system: HOP-92
ACHN = test system: ACHN
MDA-MB-231 = test system: MDA-MB-231
MDA-N = test system: MDA-N
PC-3 = test system: PC-3
UACC-62 = test system: UACC-62
CAKI-1 = test system: CAKI-1
Hs-578T = test system: Hs-578T
HCC 2998 = test system: HCC 2998
SR = test system: SR
SK-OV-3 = test system: SK-OV-3

Measured: GI50

C[C@@H](C(=O)O)N1C(c2ccco2)=C(/C(C=O)=C\c2ccco2)C(=O)/C1=C\c1ccco1
inactive: UACC-257 > 100 µM | A498 > 100 µM | MCF7 > 100 µM | CCRF-CEM > 100 µM | EKVX > 100 µM | MDA-MB-435 > 100 µM | T47D > 100 µM | SK-MEL-5 > 100 µM | RXF 393 > 100 µM | HOP-92 > 100 µM | ACHN > 100 µM | MDA-MB-231 > 100 µM | MDA-N > 100 µM | PC-3 > 100 µM | UACC-62 > 100 µM | CAKI-1 > 100 µM | Hs-578T > 100 µM

CC1(C)O[C@H]2Cn3c(c(C#N)c4ccccc43)[C@H]2O1
inactive: MCF7 > 100 µM | EKVX > 100 µM | MDA-MB-435 > 100 µM | T47D > 100 µM | SK-MEL-5 > 100 µM | HCC 2998 > 100 µM | SR > 100 µM | HOP-92 > 100 µM | ACHN > 100 µM | MDA-MB-231 > 100 µM | MDA-N > 100 µM | UACC-62 > 100 µM | CAKI-1 85.1 µM | Hs-578T > 100 µM | SK-OV-3 > 100 µM

N#CC(Nc1ccccc1)c1ccc(C(C#N)Nc2ccccc2)cc1 (stereo not drawn)
inactive: UACC-257 81.3 µM | A498 > 100 µM | MCF7 29 µM | CCRF-CEM 5.07 µM | EKVX > 100 µM | MDA-MB-435 13.7 µM | T47D 24.8 µM | SK-MEL-5 20.3 µM | HCC 2998 30.3 µM | RXF 393 > 100 µM | HOP-92 28.1 µM | ACHN 22.3 µM | MDA-MB-231 > 100 µM | MDA-N 13.2 µM | PC-3 28.8 µM | UACC-62 3.57 µM | CAKI-1 61.4 µM | Hs-578T > 100 µM | SK-OV-3 > 100 µM

CC(C)C1OC2(C)OC(=N)C1(C#N)C(C#N)(C#N)C2C (stereo not drawn)
inactive: UACC-257 28.5 µM | A498 67.5 µM | MCF7 18.7 µM | CCRF-CEM 16 µM | EKVX 18.7 µM | MDA-MB-435 37.8 µM | T47D 15 µM | SK-MEL-5 13.7 µM | HCC 2998 13.7 µM | RXF 393 36.2 µM | HOP-92 17.7 µM | ACHN 36 µM | MDA-MB-231 15.4 µM | MDA-N 15.2 µM | PC-3 24.6 µM | UACC-62 27.6 µM | CAKI-1 10.9 µM | Hs-578T 24.3 µM | SK-OV-3 > 100 µM

C=CC(C)(C)/C=C/c1ccc(O)cc1
inactive: UACC-257 24 µM | A498 28.3 µM | MCF7 35.7 µM | CCRF-CEM 39.3 µM | EKVX 45.3 µM | MDA-MB-435 37.9 µM | T47D 20 µM | SK-MEL-5 38.5 µM | HCC 2998 27.9 µM | RXF 393 24.8 µM | HOP-92 47 µM | ACHN 28.9 µM | MDA-MB-231 36.4 µM | MDA-N 35 µM | PC-3 28 µM | UACC-62 42.7 µM | CAKI-1 44.7 µM | Hs-578T 39.2 µM | SK-OV-3 49.7 µM

CC(C)(C)C(=O)C(C(c1ccccc1)N1CCOCC1)N1CCOCC1 (stereo not drawn)
inactive: UACC-257 > 100 µM | A498 > 100 µM | CCRF-CEM > 100 µM | EKVX > 100 µM | MDA-MB-435 > 100 µM | T47D > 100 µM | HCC 2998 > 100 µM | RXF 393 > 100 µM | SR > 100 µM | HOP-92 > 100 µM | ACHN > 100 µM | MDA-MB-231 > 100 µM | MDA-N > 100 µM | PC-3 > 100 µM | UACC-62 > 100 µM | CAKI-1 > 100 µM | Hs-578T > 100 µM

Cc1cc(S(=O)(=O)Nc2nc(N)n[nH]2)c(S)cc1Cl
inactive: UACC-257 > 10 µM | A498 > 10 µM | MCF7 > 10 µM | CCRF-CEM > 10 µM | EKVX > 10 µM | MDA-MB-435 > 10 µM | T47D > 10 µM | SK-MEL-5 > 10 µM | HCC 2998 > 10 µM | RXF 393 > 10 µM | ACHN > 10 µM | MDA-MB-231 > 10 µM | MDA-N > 10 µM | PC-3 > 10 µM | UACC-62 > 10 µM | CAKI-1 > 10 µM | Hs-578T > 10 µM | SK-OV-3 > 10 µM

COC(=O)c1ccccc1C1CN=NC12Cc1c(C)c3c(c(C)c1C2=O)CCC3 (stereo not drawn)
inactive: UACC-257 25.2 µM | A498 > 100 µM | MCF7 > 100 µM | CCRF-CEM > 100 µM | EKVX > 100 µM | MDA-MB-435 > 100 µM | T47D > 100 µM | SK-MEL-5 > 100 µM | HCC 2998 > 100 µM | RXF 393 > 100 µM | HOP-92 22.5 µM | ACHN > 100 µM | MDA-MB-231 23.6 µM | MDA-N > 100 µM | PC-3 > 100 µM | UACC-62 > 100 µM | CAKI-1 > 100 µM | Hs-578T > 100 µM | SK-OV-3 > 100 µM

CC/C(=N\NC(=O)c1cccnc1)c1ccc2c(c1)OCCO2
inactive: A498 > 100 µM | MCF7 66.5 µM | CCRF-CEM > 100 µM | EKVX 64.1 µM | MDA-MB-435 34.5 µM | T47D > 100 µM | SK-MEL-5 33.7 µM | RXF 393 > 100 µM | ACHN > 100 µM | MDA-MB-231 74.8 µM | MDA-N 30.9 µM | PC-3 > 100 µM | UACC-62 87.9 µM | CAKI-1 > 100 µM | Hs-578T 12.4 µM | SK-OV-3 > 100 µM

COc1ccc(C2C3=C(N=C4SC(C(C)=O)=C(C)N42)c2ccccc2CC3)cc1 (stereo not drawn)
inactive: UACC-257 73.3 µM | A498 > 100 µM | MCF7 92.7 µM | CCRF-CEM 28.8 µM | MDA-MB-435 > 100 µM | T47D 31.8 µM | SK-MEL-5 50.5 µM | HCC 2998 42.4 µM | RXF 393 23.7 µM | HOP-92 > 100 µM | ACHN > 100 µM | MDA-MB-231 > 100 µM | MDA-N 21.1 µM | PC-3 > 100 µM | UACC-62 45.7 µM | Hs-578T 69 µM | SK-OV-3 > 100 µM

N/C(=N\c1ccc(Cl)cc1)NS(=O)(=O)c1ccc(-c2ccccn2)s1
inactive: UACC-257 7.91 µM | A498 12.5 µM | MCF7 17.1 µM | EKVX 12.1 µM | T47D 12.8 µM | SK-MEL-5 15.8 µM | RXF 393 16.8 µM | SR 14.5 µM | HOP-92 13 µM | ACHN 16.4 µM | MDA-MB-231 14.2 µM | MDA-N 6.89 µM | PC-3 14.2 µM | UACC-62 13.4 µM | CAKI-1 2.07 µM | Hs-578T 24.8 µM | SK-OV-3 22.1 µM
